Results taken from paper PMC7856678 (Bioorganic & medicinal chemistry, 2021).

What was measured:
TZM-bl/Molt-HIV-1ADA = assay: Cell-to-Cell HIV-1 transmission, CCR5-tropic assay; format: cell-based; conditions: Human immunodeficiency virus 1, TZM-bl
TZM-bl/H9-HIV-1IIIB = assay: Cell-to-Cell HIV-1 transmission, CXCR4-tropic assay; format: cell-based; conditions: Human immunodeficiency virus 1, TZM-bl
Cytotoxicity [1] = format: cell-based; conditions: human, TZM-bl cells
Cytotoxicity [2] = format: cell-based; conditions: human, U87-CD4-CXCR4 cells
VSV-G pseudovirus = assay: microbe, parasite or virus in culture; format: cell-based
[3] = Solubility of compounds for antiviral/cytotoxicity testing; format: physicochemical; conditions: assays could not be performed
U87-CD4-CXCR4 cells = conditions: cells of VSV-G assay; cited from earlier work
TZM-bl cells = conditions: cited from earlier work

COc1cnc(-n2cnc(C)n2)c2[nH]cc(C(=O)C(=O)N3CCN(C(=O)c4ccccc4)CC3)c12 [BMS-626529]
IC50 (TZM-bl/Molt-HIV-1ADA): ~0.2 µM | IC50 (TZM-bl/H9-HIV-1IIIB): 0.02 ± 0.005 µM

N#Cc1ccc(-c2ccc(C(=O)N[C@@H](CN)c3nc(CO)cs3)[nH]2)cc1 [Compound 4, N-(2-Amino-1-(4-(hydroxymethyl)thiazol-2-yl)ethyl)-5-(4-cyanophenyl)-1H-pyrrole-2-carboxamide]
CC50 at 3 days (Cytotoxicity [1]): > 82 µM

NC[C@H](NC(=O)c1ccc(-c2cc(F)c(Cl)c(F)c2)[nH]1)c1nc(CCO)cs1 [Compound 9, N-(2-Amino-1-(4-(2-hydroxyethyl)thiazol-2-yl)ethyl)-5-(4-chloro-3,5-difluorophenyl)-1H-pyrrole-2-carboxamide]
CC50 at 72 h (Cytotoxicity [1]): 32.8 ± 1 µM

NC[C@H](NC(=O)c1ccc(-c2ccc(C(F)(F)F)cc2F)[nH]1)c1nc(CCO)cs1 [Compound 13, N-(2-Amino-1-(4-(2-hydroxyethyl)thiazol-2-yl)ethyl)-5-(2-fluoro-4-(trifluoromethyl)phenyl)-1H-pyrrole-2-carboxamide]
CC50 at 3 days (Cytotoxicity [2]): 33.5 ± 0.6 µM | IC50 (VSV-G pseudovirus): 11.9 ± 0.5 µM

NC[C@H](NC(=O)c1ccc(-c2ccc(C(F)(F)F)c(F)c2)[nH]1)c1nc(C(=O)O)cs1 [Compound 21, 2-[2-Amino-1-[[5-[3-fluoro-4-(trifluoromethyl)phenyl]-1H-pyrrole-2-carbonyl]amino]ethyl]thiazole-4-carboxylic acid]
Solubility [3]: Not soluble

NC[C@@H](NC(=O)c1ccc(-c2ccc(C(F)(F)F)c(F)c2)[nH]1)c1nc(C(=O)O)cs1 [Compound 22, 2-[2-Amino-1-[[5-[3-fluoro-4-(trifluoromethyl)phenyl]-1H-pyrrole-2-carbonyl]amino]ethyl]thiazole-4-carboxylic acid]
Solubility [3]: Not soluble

NC[C@@H](NC(=O)c1ccc(-c2ccc(C(F)(F)F)cc2)[nH]1)c1ncc(CO)s1 [NBD-14136]
CC50 (U87-CD4-CXCR4 cells): 46.3 ± 10.6 µM | CC50 (TZM-bl cells): 42.4 ± 1 µM
